Laboratory results published in patent publication US20090203709A1, “Pharmaceutical Dosage Form For Oral Administration Of Tyrosine Kinase Inhibitor” (ABBOTT LABORATORIES, priority 2008, published 2009).
Entries after “also recorded” stand apart in the source; their conditions may differ. Read-outs that look alike come from different tables or passages of the source.

Key:
[1] = Study M04-710 pharmacokinetics, multiple-dose escalation, non-hematologic malignancies; format: in vivo, human; settings: for AUC∞/D / Cmax/D / AUC0-24/D / Cmax / Tmax / AUC(0-t) / AUC(0-inf) / clearance / half-life: mean ± SD; for Cmax / Tmax / AUC(0-t) / AUC(0-inf) / clearance / half-life: human, plasma; for AUC(0-t): read-out: AUC0-24
Procedure: (§1) In study M04-710, blood samples for pharmacokinetic analysis were collected on Days 1 and 15 at the following times: 0 (pre-dose), 0.5, 1, 2, 3, 4, 6, 8, and 24 h (Day 1 only).
(§2) In study M05-756, blood samples for pharmacokinetic analysis were collected on Days 1 and 8 at the following times: 0 (pre-dose), 0.5, 1, 2, 3, 4, 6, 8, and 24 h (Day 1 only). Urine was collected for the 24 hour period following dosing on Day 13 through bedtime on Day 14 (non-hematologic malignancy study) and following dosing after Day 6 and through bedtime on Day 7 (AML/MDS study). Plasma and urine concentrations of ABT-869 were determined under the supervision of the Drug Analysis Department at Abbott using LCMS/MS. PK parameters were determined by noncompartmental analysis using WinNonlin Professional Version 5.0.1.

[2] = PK comparison across studies M04-710 and M05-756 (race, cancer type); format: in vivo, human; settings: for Dose Normalized AUC24 / Dose Normalized Cmax: steady state; for half-life: human, plasma, oral
Procedure: The objective of this analysis was to compare pharmacokinetic (PK) parameters and to monitor safety and early efficacy of ABT-869 when treating solid tumors versus hematologic malignances, Asian versus Caucasian populations and using solution versus tablet formulations.
as §1, §2

[3] = test system: non-hematologic malignancy; experiment: Efficacy in study M04-710; format: in vivo, human
Procedure: Study M04-710 and M05-756 are ongoing, open-label, multiple-dose escalation trials with ABT-869 administered daily for 21 consecutive days, with dose escalation scheduled in cohorts of 3 subjects. […] In both studies dosing was initiated at 10 mg QD, with subjects self-administering ABT-869 orally (admixed with approximately 60 mL of Ensure Plus or an approved alternative) at bedtime. Food was not allowed 2 h before or after dosing.
ECOG score of 0-2 in study of non-hematologic malignancies or 0-3 in AML/MDS study.

[4] = human, in vivo
Procedure: (§3) Food was not allowed 2 h before or after dosing.
(§4) The following safety evaluations were performed during the studies: adverse event monitoring, vital signs, ECGs, physical examination and laboratory tests assessments.

[5] = Safety in study M05-756 (AML/MDS; adverse events, DLTs)
Procedure: as §3, §4

[6] = Study Day 1, 10 mg (~0.20 mg/kg)
[7] = Study Day 15, 10 mg (~0.20 mg/kg)
[8] = oral, 0.1 mg/kg, Study Day 15, 0.10 mg/kg
[9] = oral, 0.1 mg/kg, Study Day 1, 0.10 mg/kg
[10] = oral, 0.25 mg/kg, Study Day 1, 0.25 mg/kg
[11] = oral, 0.25 mg/kg, Study Day 15, 0.25 mg/kg
[12] = oral, 0.3 mg/kg, Study Day 15, 0.30 mg/kg
[13] = oral, 0.3 mg/kg, Study Day 1, 0.30 mg/kg
[14] = oral, 10 mg, Study Day 1, 10 mg (~0.20 mg/kg)
[15] = oral, 10 mg, Study Day 15, 10 mg (~0.20 mg/kg)
[16] = oral, Study Day 1, 10 mg (~0.20 mg/kg)
[17] = Asian population, N 37, adjusted mean (% CV)
[18] = Caucasian population, N 12, adjusted mean (% CV)
[19] = Hematologic malignancies, N 17, adjusted mean (% CV)
[20] = Solid tumors, N 32, adjusted mean (% CV)
[21] = all cycles, N = 10, highest grade per subject

dose recovered in the urine as unchanged ABT-869 ([1]; 24 hour urine, N=4): ~4%
AUC∞/D ([1]; Study Day 1, 0.10 mg/kg): 0.51 ± 0.21 µg·h/mL/mg
Cmax/D ([1]; Study Day 1, 0.10 mg/kg): 0.020 ± 0.007 µg/mL/mg
AUC∞/D ([1]; Study Day 1, 0.25 mg/kg): 0.41 ± 0.19 µg·h/mL/mg
Cmax/D ([1]; Study Day 1, 0.25 mg/kg): 0.019 ± 0.006 µg/mL/mg
AUC∞/D ([1]; Study Day 1, 0.30 mg/kg): 0.47 ± 0.19 µg·h/mL/mg
Cmax/D ([1]; Study Day 1, 0.30 mg/kg): 0.020 ± 0.008 µg/mL/mg
AUC∞/D [1, 6]: 0.41 ± 0.22 µg·h/mL/mg
Cmax/D [1, 6]: 0.021 ± 0.012 µg/mL/mg
AUC0-24/D ([1]; Study Day 15, 0.10 mg/kg): 0.35 ± 0.15 µg·h/mL/mg
Cmax/D ([1]; Study Day 15, 0.10 mg/kg): 0.024 ± 0.008 µg/mL/mg
AUC0-24/D ([1]; Study Day 15, 0.25 mg/kg): 0.30 ± 0.08 µg·h/mL/mg
Cmax/D ([1]; Study Day 15, 0.25 mg/kg): 0.022 ± 0.006 µg/mL/mg
AUC0-24/D ([1]; Study Day 15, 0.30 mg/kg): 0.30 ± 0.07 µg·h/mL/mg
Cmax/D ([1]; Study Day 15, 0.30 mg/kg): 0.022 ± 0.008 µg/mL/mg
AUC0-24/D [1, 7]: 0.35 ± 0.20 µg·h/mL/mg
Cmax/D [1, 7]: 0.026 ± 0.019 µg/mL/mg
Cmax [1, 8]: 0.14 ± 0.05 µg/mL
Tmax [1, 8]: 3.7 ± 1.5 h
AUC(0-t) [1, 8]: 2.1 ± 0.9 µg·h/mL
AUC(0-inf) [1, 9]: 3.1 ± 1.4 µg·h/mL
Cmax [1, 9]: 0.12 ± 0.05 µg/mL
Tmax [1, 9]: 3.5 ± 1.5 h
clearance [1, 9]: 38.3 mL/min
half-life [1, 9]: 19 ± 5.6 h
Cmax [1, 10]: 0.26 ± 0.09 µg/mL
Tmax [1, 10]: 2.7 ± 0.8 h
Cmax [1, 11]: 0.31 ± 0.12 µg/mL
Tmax [1, 11]: 3.5 ± 1 h
Cmax [1, 12]: 0.39 ± 0.17 µg/mL
Tmax [1, 12]: 3.3 ± 0.6 h
AUC(0-t) [1, 12]: 5.3 ± 1.5 µg·h/mL
AUC(0-inf) [1, 13]: 7.9 ± 2 µg·h/mL
Cmax [1, 13]: 0.34 ± 0.09 µg/mL
Tmax [1, 13]: 2 h
clearance [1, 13]: 40 mL/min
half-life [1, 13]: 22 ± 2.4 h
Cmax [1, 14]: 0.21 ± 0.12 µg/mL
Tmax [1, 14]: 3.3 ± 1.5 h
Cmax [1, 15]: 0.22 ± 0.17 µg/mL
Tmax [1, 15]: 3 h
AUC(0-inf) ([1]; oral, Study Day 1, 0.25 mg/kg): 5.8 ± 2.9 µg·h/mL
clearance ([1]; oral, Study Day 1, 0.25 mg/kg): 50 mL/min
half-life ([1]; oral, Study Day 1, 0.25 mg/kg): 18.9 ± 6.2 h
AUC(0-inf) [1, 16]: 4.1 ± 2.2 µg·h/mL
clearance [1, 16]: 50 mL/min
half-life [1, 16]: 14.4 ± 4.6 h
AUC(0-t) ([1]; oral, Study Day 15, 0.25 mg/kg): 4.3 ± 2.1 µg·h/mL
AUC(0-t) ([1]; oral, Study Day 15, 10 mg (~0.20 mg/kg)): 3 ± 1.5 µg·h/mL
time to maximum plasma concentration ([2]; 42 patients across studies): approximately 3 h
Dose Normalized AUC24 [2, 17]: 0.264 (41%) μg · hr/mL/mg
Dose Normalized Cmax [2, 17]: 0.018 (37%) μg/mL/mg
Dose Normalized AUC24 [2, 18]: 0.229 (34%) μg · hr/mL/mg
Dose Normalized Cmax [2, 18]: 0.016 (27%) μg/mL/mg
Dose Normalized AUC24 [2, 19]: 0.230 (39%) μg · hr/mL/mg
Dose Normalized Cmax [2, 19]: 0.018 (33%) μg/mL/mg
Dose Normalized AUC24 [2, 20]: 0.273 (40%) μg · hr/mL/mg
Dose Normalized Cmax [2, 20]: 0.017 (39%) μg/mL/mg
half-life ([2]; 42 patients across studies, read-out: mean terminal elimination half-life): 13.9 to 23.1 h
half-life ([2]; Asian population, N 37, adjusted mean (% CV), read-out: T1/2 (converted)): 18.4 h
half-life ([2]; Caucasian population, N 12, adjusted mean (% CV), read-out: T1/2 (converted)): 14.5 h
half-life ([2]; Hematologic malignancies, N 17, adjusted mean (% CV), read-out: T1/2 (converted)): 15.7 h
half-life ([2]; Solid tumors, N 32, adjusted mean (% CV), read-out: T1/2 (converted)): 18.4 h
Klebsiella Bacteraemia, Grade 1 [4]: 0 n
Klebsiella Bacteraemia, Grade 2 [4]: 0 n
Klebsiella Bacteraemia, Grade 3/4 [4]: 2 n
Klebsiella Bacteraemia, Overall [4]: 2 (20.0) n (%)
SMILES: Cc1ccc(F)c(NC(=O)Nc2ccc(-c3cccc4[nH]nc(N)c34)cc2)c1 [ABT-869, N-[4-(3-amino-1H-indazol-4-yl)phenyl]-N′-(2-fluoro-5-methylphenyl)urea]
dose proportionality and time dependence of PK ([1]; 0.10 to 0.30 mg/kg QD, oral): dose-proportional and time-invariant; also recorded: approximately dose-proportional (0.10-0.30 mg/kg QD, oral) and time independent with minimal accumulation at day 15
change in tumor size ([3]; NSCLC, CRC, neuroendocrine tumor, HCC, RCC soft tissue sarcoma and ovarian carcinoma): Reductions in tumor size observed
NSCLC patients with partial remission / partial response ([3]; study M04-710): 2 (9%) patients (%)
patients with SD for >1 year with no accumulation of toxicity ([3]; study M04-710): 4 patients
patients with SD for ≧6 months ([3]; study M04-710): 6 (22%) patients (%)
patients with stable disease (SD) for ≧3 months (4 treatment periods) ([3]; study M04-710): 15 (56%) patients (%)
Dose limiting fatigue ([5]; 20 mg/body cohort): 3 patients
Alopecia, Overall ([5]; all cycles, N = 10): 2 (20.0) n (%)
Anorexia, Overall ([5]; all cycles, N = 10): 2 (20.0) n (%)
Asthenia, Overall ([5]; all cycles, N = 10): 3 (30.0) n (%)
Constipation, Overall ([5]; all cycles, N = 10): 2 (20.0) n (%)
Cough, Overall ([5]; all cycles, N = 10): 3 (30.0) n (%)
Diarrhoea, Overall ([5]; all cycles, N = 10): 4 (40.0) n (%)
Fatigue, Overall ([5]; all cycles, N = 10): 2 (20.0) n (%)
Febrile Neutropenia, Overall ([5]; all cycles, N = 10): 3 (30.0) n (%)
Haematuria, Overall ([5]; all cycles, N = 10): 2 (20.0) n (%)
Hypocalcaemia, Overall ([5]; all cycles, N = 10): 2 (20.0) n (%)
Hypokalaemia, Overall ([5]; all cycles, N = 10): 2 (20.0) n (%)
Myalgia, Overall ([5]; all cycles, N = 10): 2 (20.0) n (%)
Nausea, Overall ([5]; all cycles, N = 10): 2 (20.0) n (%)
Palmar-plantar erythrodysaesthesia syndrome, Overall ([5]; all cycles, N = 10): 2 (20.0) n (%)
Pyrexia, Overall ([5]; all cycles, N = 10): 3 (30.0) n (%)
Alopecia, Grade 1 [5, 21]: 0 n
Alopecia, Grade 2 [5, 21]: 2 n
Alopecia, Grade 3/4 [5, 21]: 0 n
Anorexia, Grade 1 [5, 21]: 2 n
Anorexia, Grade 2 [5, 21]: 0 n
Anorexia, Grade 3/4 [5, 21]: 0 n
Asthenia, Grade 1 [5, 21]: 1 n
Asthenia, Grade 2 [5, 21]: 0 n
Asthenia, Grade 3/4 [5, 21]: 2 n
Constipation, Grade 1 [5, 21]: 2 n
Constipation, Grade 2 [5, 21]: 0 n
Constipation, Grade 3/4 [5, 21]: 0 n
Cough, Grade 1 [5, 21]: 3 n
Cough, Grade 2 [5, 21]: 0 n
Cough, Grade 3/4 [5, 21]: 0 n
Diarrhoea, Grade 1 [5, 21]: 2 n
Diarrhoea, Grade 2 [5, 21]: 1 n
Diarrhoea, Grade 3/4 [5, 21]: 1 n
Fatigue, Grade 1 [5, 21]: 1 n
Fatigue, Grade 2 [5, 21]: 1 n
Fatigue, Grade 3/4 [5, 21]: 0 n
Febrile Neutropenia, Grade 1 [5, 21]: 0 n
Febrile Neutropenia, Grade 2 [5, 21]: 0 n
Febrile Neutropenia, Grade 3/4 [5, 21]: 3 n
Haematuria, Grade 1 [5, 21]: 1 n
Haematuria, Grade 2 [5, 21]: 1 n
Haematuria, Grade 3/4 [5, 21]: 0 n
Hypocalcaemia, Grade 1 [5, 21]: 2 n
Hypocalcaemia, Grade 2 [5, 21]: 0 n
Hypocalcaemia, Grade 3/4 [5, 21]: 0 n
Hypokalaemia, Grade 1 [5, 21]: 2 n
Hypokalaemia, Grade 2 [5, 21]: 0 n
Hypokalaemia, Grade 3/4 [5, 21]: 0 n
Myalgia, Grade 1 [5, 21]: 1 n
Myalgia, Grade 2 [5, 21]: 0 n
Myalgia, Grade 3/4 [5, 21]: 1 n
Nausea, Grade 1 [5, 21]: 2 n
Nausea, Grade 2 [5, 21]: 0 n
Nausea, Grade 3/4 [5, 21]: 0 n
Palmar-plantar erythrodysaesthesia syndrome, Grade 1 [5, 21]: 2 n
Palmar-plantar erythrodysaesthesia syndrome, Grade 2 [5, 21]: 0 n
Palmar-plantar erythrodysaesthesia syndrome, Grade 3/4 [5, 21]: 0 n
Pyrexia, Grade 1 [5, 21]: 1 n
Pyrexia, Grade 2 [5, 21]: 1 n
Pyrexia, Grade 3/4 [5, 21]: 1 n
dose-limiting toxicities ([5]; study M05-756): fatigue is dose-limiting
reversibility of toxicities ([5]; study M05-756): treatable, or reversible with ABT-869 interruption
